Measurements: article PMC12310023 (PLOS Neglected Tropical Diseases, 2025)

Legend:
[1] = Liver microsome stability; settings: dog, pooled liver microsomes
[2] = biological target: T1, CYP2B6 (Homo sapiens, UniProt P20813); experiment: in vitro; settings: recombinant CYP2B6 supersomes
T1 sequence (P20813 1-491): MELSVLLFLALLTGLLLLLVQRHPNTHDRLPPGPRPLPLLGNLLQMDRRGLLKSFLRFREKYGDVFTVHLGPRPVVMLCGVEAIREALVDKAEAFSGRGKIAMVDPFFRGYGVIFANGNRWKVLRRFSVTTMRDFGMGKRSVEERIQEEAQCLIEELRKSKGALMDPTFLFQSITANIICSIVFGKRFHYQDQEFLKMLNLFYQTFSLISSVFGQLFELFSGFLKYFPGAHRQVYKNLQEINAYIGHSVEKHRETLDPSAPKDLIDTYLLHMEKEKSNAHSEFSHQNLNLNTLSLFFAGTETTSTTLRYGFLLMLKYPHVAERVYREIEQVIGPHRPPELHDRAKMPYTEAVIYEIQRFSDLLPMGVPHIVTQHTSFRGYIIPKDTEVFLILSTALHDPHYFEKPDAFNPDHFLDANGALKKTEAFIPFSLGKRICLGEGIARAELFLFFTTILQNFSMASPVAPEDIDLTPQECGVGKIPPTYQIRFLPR

[3] = biological target: T2, 5-HT2B (Homo sapiens, UniProt P41595); experiment: Cerep cellular and nuclear receptor functional assay; assay type: cell-based
T2 construct: Cerep (Eurofins, France)

[4] = Plasma protein binding, equilibrium dialysis; settings: rat
[5] = biological target: T3, A3 (Homo sapiens, UniProt P0DMS8); experiment: Cerep cellular and nuclear receptor functional assay
T3 sequence (P0DMS8 1-318): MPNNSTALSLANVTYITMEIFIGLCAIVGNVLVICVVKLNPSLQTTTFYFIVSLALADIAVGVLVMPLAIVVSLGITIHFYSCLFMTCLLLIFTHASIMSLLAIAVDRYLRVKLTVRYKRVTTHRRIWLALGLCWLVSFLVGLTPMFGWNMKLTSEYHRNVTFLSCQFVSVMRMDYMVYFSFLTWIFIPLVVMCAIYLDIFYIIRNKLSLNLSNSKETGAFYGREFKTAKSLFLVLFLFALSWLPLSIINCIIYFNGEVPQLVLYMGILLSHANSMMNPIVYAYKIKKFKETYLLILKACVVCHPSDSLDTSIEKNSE

[6] = Mouse PK, Balb/c
[7] = Plasma protein binding, equilibrium dialysis; settings: human
[8] = Hepatocyte stability; settings: human
[9] = system: NLuc-expressing C. parvum; experiment: NLuc C. parvum IFNγ-KO mouse infection model, oocyst shedding; assay type: in vivo
[10] = Mouse PK, IFNγ-KO BL6
[11] = Balb/c, mouse, plasma, iv, 1 mg/kg
[12] = Balb/c, mouse, plasma, po, 30 mg/kg

T2 sequence (P41595 whole entry): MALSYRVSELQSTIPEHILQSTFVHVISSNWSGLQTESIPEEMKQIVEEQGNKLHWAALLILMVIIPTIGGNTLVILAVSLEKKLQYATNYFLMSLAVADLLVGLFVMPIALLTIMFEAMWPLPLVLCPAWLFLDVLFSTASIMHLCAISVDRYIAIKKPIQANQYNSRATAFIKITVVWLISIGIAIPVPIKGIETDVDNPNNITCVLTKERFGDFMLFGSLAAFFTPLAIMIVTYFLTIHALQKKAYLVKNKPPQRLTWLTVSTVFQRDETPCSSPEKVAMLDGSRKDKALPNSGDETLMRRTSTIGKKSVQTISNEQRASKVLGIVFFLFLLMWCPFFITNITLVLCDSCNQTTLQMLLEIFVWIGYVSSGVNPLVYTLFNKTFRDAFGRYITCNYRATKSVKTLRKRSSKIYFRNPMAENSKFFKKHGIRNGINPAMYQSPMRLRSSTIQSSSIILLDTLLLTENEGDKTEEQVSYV

With `CC1(C)Cn2nc(-c3ccc4cc(OC5CC5)ccc4c3)c(C(N)=O)c2NC1O` (centres unmarked) [M2] the CLint scaled [1] was under 33.3 mL/min/kg, the half-life [1] was over 2 h and the microsomal CLint [1] was under 23.1 µL/min/mg. For the same compound, the CLint scaled [2] was 0.35 mL/min/kg, the half-life [2] was 2.65 h and the agonist effect [3] was “no effect up to 100 μM”. The IC50 ([3]; read-out: IC50, antagonist effect) was 20 µM, the fraction unbound [4] was 0.06 and the EC50 [5] was over 10 µM. For the same compound, the IC50 [5] was 43 µM, the C0 [6, 11] was 4.2 ± 1.3 µM and the Vd [6, 11] was 0.9 L/kg. For the same compound, the clearance [6, 11] was 6.2 mL/min/kg, the half-life [6, 11] was 1.77 h and the Cmax [6, 12] was 13.1 ± 1.3 µM. The Tmax [6, 12] was 1.5 h, the bioavailability [6, 12] was 43% and the half-life [6, 12] was 3.07 h. The AUC0-inf ([6]; M2 IV 1 mg/kg) was 400 ± 42 µmol·min/L, the AUC0-inf ([6]; M2 PO 30 mg/kg) was 5185 ± 1500 µmol·min/L and the “M2 AUC0-inf” value ([6]; after BKI-1708 IV 3 mg/kg) was 988 ± 162 µmol·min/L. The “M2 AUC0-inf” value ([6]; after BKI-1708 PO 15 mg/kg) was 6445 ± 654 µmol·min/L, the fraction unbound [7] was 0.04 and the “LM:hepatocyte CLint_scaled ratio” value ([8]; liver microsomes and primary hepatocytes) was under 2.5. For the same compound, the CLint scaled ([8]; primary hepatocytes) was 10 mL/min/kg, the half-life ([8]; primary hepatocytes) was 6.27 h and the hepatocyte CLint ([8]; primary hepatocytes) was 3.7 µL/min/1e6 cells. The “day p.i. oocyst shedding reached LoD” value ([9]; M2 8 mg/kg x 3 days PO) was 17 days, the “day p.i. oocyst shedding below LoD” value ([9]; M2 15 mg/kg x 3 days PO) was at most 10 days and the “day p.i. oocyst shedding below LoD” value ([9]; M2 30 mg/kg x 3 days PO) was at most 10 days. The “M2 AUC0-inf” value ([10]; after BKI-1708 IV 3 mg/kg) was 792 ± 18 µmol·min/L and the “M2 AUC0-inf” value ([10]; after BKI-1708 PO 15 mg/kg) was 5948 ± 1398 µmol·min/L.
